For one data set, the target named is T1, AF9 YEATS (Homo sapiens, UniProt P42568).
T1 sequence (P42568 1-138 limits assumed): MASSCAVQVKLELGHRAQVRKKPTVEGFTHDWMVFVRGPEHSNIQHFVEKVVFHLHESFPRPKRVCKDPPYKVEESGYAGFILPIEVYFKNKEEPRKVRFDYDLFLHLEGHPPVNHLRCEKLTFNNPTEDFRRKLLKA
Briefly: ALPHA assay, inhibition of the AF9 YEATS-H3K27ac interaction.

The subject of data set [1] is Molm-13 cells. The experiment in a line: Antiproliferation assay (XTT), Molm-13.
Experimental: (§2) Proliferation inhibition assays for suspension blood cancer cells were performed using an XTT assay kit (Biotium), following our previous methods [22]. EC50 values were determined using Prism 5 and from at least three independent experiments.
Data set [2] relates to Molm-13 cells. The experiment in a line: Cell differentiation (CD14, CD11b, FACS) in Molm-13 cells. The format is cell-based, human. The following applies: 3 μM for 5 days. How it is done: Treatment of Molm-13 cells with compound 1 for 7 days at 1 and 3 µM caused significant apoptosis of 22.7% and 67.6%, respectively (Fig. 6c and Additional file 1: Fig. S6).
For Annexin V apoptosis assay, 10^5 cells/mL were incubated with increasing concentrations of a compound for 7 days. Apoptosis was determined using the FITC Annexin V Apoptosis Detection Kit I (BD Bioscience) using the manufacturer’s protocol. For other FACS assays, cells were labeled with fluorochrome-conjugated monoclonal antibodies against human CD14 and CD11b (BD Biosciences) according to the manufacturer’s recommendation. Cells were analyzed using a FACS Calibur (BD Biosciences/Applied Biosystems), and data were processed using the program Flowjo (version7.6.5).

In another data set the test system is Panc1 cells. Briefly: Antiproliferation assay, Panc1. The note with it: Homo sapiens, PANC-1, 168 h, read-out: Antiproliferative activity, EC50, Panc1.
In the next data set the test system is U266 cells. Briefly: Antiproliferation assay (XTT), U266. The following applies: Homo sapiens, U-266, 168 h, read-out: Antiproliferative activity, EC50, U266.
The subject of a further data set is HoxA9, Meis1 and Myc. The experiment in a line: qPCR expression of HoxA9, Meis1 and Myc in Molm-13 cells. The class given is cell-based. The note with it: 4 days. How it is done:
Previous studies show ENL is required for expression of MLL1-target genes in MLL1-r leukemia. How compound 1-mediated ENL degradation changes expression of HoxA9, Meis1 and Myc, three characteristic genes in MLL1-r leukemia, was examined. Molm-13 cells were treated with compound 1 for 4 days, after which the RNAs were extracted and analyzed.
10^5 cells/mL were incubated with a compound for 4 days and the RNA was extracted using RNeasy mini kit (#74104, Qiagen). 100–1000 ng of total RNA was reverse transcribed using iScript™ Reverse Transcription Supermix (Bio-Rad) using the manufacturer’s protocol. Quantitative real-time PCR was carried out using Fast SYBR Green Master Mix (Applied Biosystems) according to the manufacturer’s instructions. Measurements were performed in triplicate, using GAPDH as the reference gene. Real-time PCR was performed using Biosystems Step One Plus detection system. The following sequences of primers are used: • MYC (forward: 5′-[…]-3′; reverse: 5′-[…]-3′); • HoxA9 (forward: 5′-[…]-3′; reverse: 5′-[…]-3′); • Meis1 (forward: 5′-[…]-3′; reverse: 5′-[…]-3′); • GAPDH (forward: 5′-[…]-3′; reverse: 5′-[…]-3′).

The subject of another data set is HoxA11 and HoxA13. Briefly: qPCR expression of HoxA11 and HoxA13 in mENL-transfected HEK293T cells. The class given is cell-based. The note with it: 0.04 μg of the plasmid, 24 h incubation. On the procedure: Next, we investigated how mENL degradation affect expression of HoxA11 and HoxA13 in this cell model.
(§1) 5 × 10^5 HEK293T cells were transfected with mENL containing pcDNA3.1(+)-N-DYK plasmid using jetPRIME (Polyplus Transfection) following the manufacturer's protocol. Upon transfection for 4 h, the media were carefully removed and the cells incubated with fresh media containing the specified concentrations of compound 1 for 24 h before further analysis (using Western blot or qPCR as described above).

Another data set has as its system Molm-13 leukemia. The experiment in a line: Subcutaneous Molm-13 leukemia xenograft in NOD-SCID mice. The format is in vivo. On the procedure:
In vivo antitumor activity of compound 1 was evaluated in a commonly used mouse model of Molm-13 leukemia. First, in vivo toxicity was assessed in C57BL/6 mice. […] Next, 10^6 Molm-13 cells were injected subcutaneously into NOD-SCID mice, which developed palpable tumors in ~ 1 week and grew rapidly.
All of the mouse studies were conducted in strict compliance with an […] protocol. NOD-SCID mice (6–8 weeks old, from Jackson lab) were obtained and maintained under specific pathogen-free conditions. 10^6 Molm13 cells in medical grade saline were inoculated subcutaneously, and palpable tumors (2–3 mm in diameter) were developed in ~ 1 week. Mice were treated with compound 1 (30 mg/kg/day for 13 days) in saline (0.1 mL) administered intraperitoneally. Tumors were measured every day and estimated by using the formula a × b^2/2.

For the next data set, the target named is T2, mutant ENL (mENL) (Homo sapiens, UniProt Q03111+Q96SW2, INS117NHL).
T2 construct: FLAG (DYK); expressed in transfected cells; host or cells: HEK293T
The experiment in a line: Degradation of mutant and WT ENL in mENL-transfected HEK293T cells (Western blot). The format is cell-based. On the procedure:
Ability of compound 1 to degrade mutant ENL, which has been implicated to cause Wilms tumor, was evaluated. […] A pcDNA3.1(+)-N-DYK plasmid containing a mutant ENL (mENL) with a short insertion of -NHL- between L117 and R118 [38] was transfected into 5 × 10^5 HEK293T cells. Upon incubation for 24 h, expression of the FLAG-tagged mENL can be dose-dependently detected with as low as 0.04 μg of the plasmid (Fig. 7a). Using a FLAG antibody appeared to be less quantitative because of a higher background staining for the control samples (Fig. 7a–c, left panels).
With 0.1 μg of the plasmid, compound 1 can efficiently degrade both WT and mutant ENL proteins with Dmax of ~ 95% at ~ 500 nM upon 24 h incubation (Fig. 7b). […] It was ineffective with 1 μg of the plasmid (not shown), presumably because the rate of mENL synthesis in cells was higher than that of 1-mediated degradation.
as §1

T2 sequence (Q03111 with tags, fused parts or gaps INS117NHL): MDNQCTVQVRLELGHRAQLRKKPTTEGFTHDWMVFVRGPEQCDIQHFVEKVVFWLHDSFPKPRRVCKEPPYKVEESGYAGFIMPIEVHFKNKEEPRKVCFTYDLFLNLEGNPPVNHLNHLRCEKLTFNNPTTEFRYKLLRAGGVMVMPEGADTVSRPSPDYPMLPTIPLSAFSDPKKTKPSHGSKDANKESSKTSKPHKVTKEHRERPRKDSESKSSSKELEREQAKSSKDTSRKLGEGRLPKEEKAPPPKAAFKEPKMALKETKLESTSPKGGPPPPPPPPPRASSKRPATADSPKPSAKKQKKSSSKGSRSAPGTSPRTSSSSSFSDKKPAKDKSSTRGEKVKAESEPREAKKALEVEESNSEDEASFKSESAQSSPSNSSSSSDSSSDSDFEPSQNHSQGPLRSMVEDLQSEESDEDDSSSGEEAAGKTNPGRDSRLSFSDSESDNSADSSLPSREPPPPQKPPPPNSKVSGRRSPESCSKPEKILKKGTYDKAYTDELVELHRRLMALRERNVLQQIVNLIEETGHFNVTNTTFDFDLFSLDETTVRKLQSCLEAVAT
T2 sequence (Q96SW2 whole entry, stated change not applied): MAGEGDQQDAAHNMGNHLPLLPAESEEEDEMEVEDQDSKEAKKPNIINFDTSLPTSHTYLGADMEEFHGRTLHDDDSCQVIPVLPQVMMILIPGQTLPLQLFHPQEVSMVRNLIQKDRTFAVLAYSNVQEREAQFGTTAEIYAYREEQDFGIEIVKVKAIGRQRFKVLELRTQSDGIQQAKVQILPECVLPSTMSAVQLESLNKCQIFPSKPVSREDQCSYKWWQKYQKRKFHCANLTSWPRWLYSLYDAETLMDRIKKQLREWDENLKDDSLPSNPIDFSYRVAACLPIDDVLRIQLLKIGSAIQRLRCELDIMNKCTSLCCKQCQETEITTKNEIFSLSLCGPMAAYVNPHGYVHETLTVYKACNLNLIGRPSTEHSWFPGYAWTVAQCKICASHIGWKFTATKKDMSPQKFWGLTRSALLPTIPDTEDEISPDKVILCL
T2 sequence (Q16531 whole entry partner): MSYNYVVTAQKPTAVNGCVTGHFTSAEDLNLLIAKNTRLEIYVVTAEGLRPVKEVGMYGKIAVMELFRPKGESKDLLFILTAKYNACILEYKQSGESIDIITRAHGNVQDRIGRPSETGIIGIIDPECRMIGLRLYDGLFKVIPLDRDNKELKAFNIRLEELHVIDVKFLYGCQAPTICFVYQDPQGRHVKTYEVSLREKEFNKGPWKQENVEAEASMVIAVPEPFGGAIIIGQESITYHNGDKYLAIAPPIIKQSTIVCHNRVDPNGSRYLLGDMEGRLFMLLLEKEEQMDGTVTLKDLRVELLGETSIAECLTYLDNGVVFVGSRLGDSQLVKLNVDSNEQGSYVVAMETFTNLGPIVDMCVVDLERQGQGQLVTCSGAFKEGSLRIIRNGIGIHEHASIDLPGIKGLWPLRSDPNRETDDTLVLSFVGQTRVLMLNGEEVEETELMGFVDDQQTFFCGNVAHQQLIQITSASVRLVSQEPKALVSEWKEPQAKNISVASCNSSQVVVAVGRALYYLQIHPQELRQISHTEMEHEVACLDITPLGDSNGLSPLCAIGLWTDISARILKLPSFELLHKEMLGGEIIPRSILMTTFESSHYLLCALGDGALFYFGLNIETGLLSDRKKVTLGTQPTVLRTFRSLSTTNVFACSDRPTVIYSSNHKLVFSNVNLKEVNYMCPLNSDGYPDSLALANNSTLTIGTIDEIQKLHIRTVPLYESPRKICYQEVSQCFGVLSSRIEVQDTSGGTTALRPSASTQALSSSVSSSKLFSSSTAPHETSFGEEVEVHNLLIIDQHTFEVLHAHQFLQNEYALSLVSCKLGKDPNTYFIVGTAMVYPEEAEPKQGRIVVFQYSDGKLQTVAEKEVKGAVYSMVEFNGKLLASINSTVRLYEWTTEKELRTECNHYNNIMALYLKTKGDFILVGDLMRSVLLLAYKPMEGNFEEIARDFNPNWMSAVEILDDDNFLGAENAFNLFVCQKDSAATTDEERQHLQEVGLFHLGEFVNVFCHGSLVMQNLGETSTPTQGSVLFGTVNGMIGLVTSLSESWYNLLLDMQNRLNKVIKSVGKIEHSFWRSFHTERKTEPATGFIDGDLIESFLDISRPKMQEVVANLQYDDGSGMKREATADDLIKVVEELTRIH
Text for AF9 YEATS: AlphaScreen binding assay was developed using Perkin-Elmer AlphaScreen Histidine (Nickel Chelate) Detection Kit, following a reported protocol [39]. Data were imported into Prism (version 5.0), and IC50 values from 3 independent experiments with standard deviation were obtained by using a standard dose–response curve fitting.
Experimental for U266 cells: as §2

Consider `C[C@H]1CCCN1Cc1nc2cc(NC(=O)c3ccc4c(cnn4CCCCCCCCNc4cccc5c4C(=O)N(C4CCC(=O)NC4=O)C5=O)c3)ccc2[nH]1` (some centres unmarked) [Compound 1], for which, on AF9 YEATS, half-maximal inhibition (IC50) was put at 0.75 ± 0.015 µM. For the same compound, the EC50 in the data set with Molm-13 cells [1] (Homo sapiens, MOLM-13, 168 h, read-out: EC50 against proliferation of Molm-13 cells) was 0.32 µM; in the data set with Panc1 cells, over 50 µM; with U266 cells it was 4.1 ± 1.8 µM. The “Time-dependent activity against cell proliferation” value in the data set on Molm-13 cells [1] (Molm-13 cells) is “did not inhibit cell proliferation during the first 4 days”. The “Cell differentiation (cells with high levels of CD14 and CD11b)” value with Molm-13 cells [2] was “induced cell differentiation”. The “Expression of HoxA9, Meis1 and Myc” value with HoxA9, Meis1 and Myc is “significantly inhibit expression”. Further, the “Overexpression of HoxA11 and HoxA13” value with HoxA11 and HoxA13 was “significantly inhibited overexpression”. The Body weight result in the data set on Molm-13 leukemia (30 mg/kg/day for Day 3–15) was “did not cause significant weight losses”. For the same compound, the Tumor growth entry with Molm-13 leukemia (30 mg/kg/day for Day 3–15, intraperitoneally) was “significantly inhibited tumor growth”. Moreover, in the data set with Molm-13 leukemia (30 mg/kg/day for Day 3–15, intraperitoneally, p < 0.01, 30 mg/kg/day), the Animal survival result is given as “prolonged animal survivals”. Moreover, the “Degradation of WT and mutant ENLs” value is recorded as “reduced efficiency” at mutant ENL (mENL) (0.2 μg of the plasmid, 500 nM, 24 h) and “ineffective” at mutant ENL (mENL) (1 μg of the plasmid). At mutant ENL (mENL) (HEK-293T, 0.1 μg of the plasmid, ~ 500 nM, 24 h), this compound had a Dmax of about 95%.

For the origin of these results see article PMC8994274, “A proteolysis-targeting chimera molecule selectively degrades ENL and inhibits malignant gene expression and tumor growth” (Journal of Hematology & Oncology, 2022).
